Test results taken from patent US11291684B2, “Treatment of glaucoma” (TX MEDIC AB, priority 2017, dated 2022).

What was measured:
[1] = test system: laser-induced CNV; assay: Isolectin B4 and collagen IV staining of RPE/choroidal/sclera wholemounts in laser-induced CNV model; format: in vivo, C57BL/6J mice
Description: Mice were anaesthetized with an intraperitoneal injection of 75 mg/kg ketamine and 7.5 mg/kg xylazine. The pupils were dilated with 1% atropine and 2.5% phenylephrine (Bausch & Lomb). To induce CNV, the rupture of Bruch's membrane-choroid was achieved by laser photocoagulation using the HGM Elite 532 Green Laser (Litechnica Ltd, Middesex, UK) with the spot size of 100 μm, 250 mW power and 100 msec duration. The laser spots were placed between retinal vessels and 2 to 3 disc-diameter away from the optic disc. The formation of a bubble at the site of laser application indicates the successful rupture of Bruch's membrane. Only laser burns in which a bubble was produced were included in this study. […] Three laser burns were applied to each retina.
Immediately after CNV induction, all mice were injected subcutaneously with 500 μl of dextran sulfate or saline. The injection was repeated once daily for 9 days post laser-CNV induction.
On day 10 post-CNV induction, all mice were sacrificed and eyes were carefully removed. All eyes were fixed in 2% paraformaldehyde/PBS (Sigma-Aldrich, Dorset, UK) for 2 h at room temperature and then washed and stored in PBS at 4° C. RPE-choroid-sclera wholemounts were prepared using the protocol described. Briefly, the anterior segment of the eye, including the cornea, ciliary body, iris and the lens were removed. Five vertical cuts were made to the eye cup, and the retinal tissue was then carefully removed. The extra ocular tissues, including conjunctiva and ocular muscles were carefully removed from the eye-cup (containing RPE/choroid/sclera). The RPE/choroidal/sclera wholemounts were further processed for Griffonia simplicifolia lectin 1-isolectin B4 and collagen IV immunostaining.
CNV was detected using the well-established isolectin B4 and collagen IV labelling technique. Isolectin B4 labels both infiltrating macrophages and vascular endothelial cells. Collagen IV labels the basal lamina of blood vessels. Both markers have been used widely to detect CNV.
RPE/choroidal/sclera wholemounts were permeablized with 0.5% Triton X-100/PBS for 1 h at room temperature. The samples were then blocked with 10% BSA in 0.5% Triton X-100/PBS for 1 h and incubated with biotinylated Griffonia simplicifolia lectin 1-isolectin B4 (GSL Isolectin B4, 1:50, Vector Laboratories Ltd, UK) and collagen IV (1:50, BIO-RAD, UK) overnight at 4° C. After thorough washing in PBS (10 minutes×3), samples were incubated with streptavidin-fluorescein isothiocyanate (FITC) (1:100, Vector laboratories, UK) and goat anti rabbit AF594 (1:100, Invitrogen, UK) for two hours at room temperature. Samples were flat-mounted on glass slides with Vectashield Mounting Medium (Vector Laboratories Ltd, UK) and observed by fluorescent microscopy.
Lecia fluorescent microscope was used to acquire images from above prepared RPE-choroidal/sclera wholemount samples. A 10× objective lens was used to allow capturing the whole area of a CNV. The imaging software ImageJ was used to analyze the images. To measure the size of CNV, the border of CNV was outlined manually and the size was automatically calculated using Image J software.
All data (the size of CNV in each group) were expressed as mean±SEM. Student t test was used to compare the difference between the dextran sulfate group and the saline control group.
24 C57BL/6J mice (10˜12 weeks old) were used in this study. […]

[2] = test system: glaucomatous eyes; assay: Intraocular pressure in TGF-β-induced glaucoma model (rebound tonometer); format: in vivo, Sprague Dawley rats; settings: rat, 15 mg/kg daily s.c. from day 14
From the text: Raised IOP was induced by twice weekly intracameral injections of the inflammatory cytokine TGF-β over the entire time period of 28 days. This induced scarring of the trabecular meshwork (TM) drainage portals by day 14 with associated raised IOP. Daily subcutaneous dextran sulfate/saline treatments commenced at day 14.
Glaucoma was induced in adult male Sprague Dawley rats by repeat twice weekly intracameral (IC) injections of transforming growth factor-β (TGF-β) to increase intraocular pressure (IOP). Sustained increases in IOP (after two weeks) leads to death of retinal ganglion cells (30-40%). Dextran sulfate (Tikomed AB, Sweden, WO 2016/076780) was administered at 15 mg/kg by daily subcutaneous injection from […] to assess RGC protection compared to controls.
Group 1 n=12 rats; 24 eyes IOP+IC TGF-β (twice weekly for 28 days) between day 0 and day 28+ daily subcutaneous administration of dextran sulfate from day 14 to day 28.
Sixteen 8 to 10 week-old male 175-200 g Sprague Dawley rats (Charles River, Kent, UK), housed with free access to food and water under a 12 h dark/light cycle, were used for these experiments. Surgery was performed at the Biomedical Services Unit at the University of Birmingham in accordance with the Home Office guidelines set out in the 1986 Animal Act (UK) and the ARVO Statement for the Use of Animals in Ophthalmic and Vision Research. […] The post-operative welfare of all rats was monitored closely. […]
Using an iCare Tonolab rebound tonometer (Icare, Helsinki, Finland), IOP was recorded bi-weekly between 9-11 am for the duration of each experiment to avoid confounding the readings with circadian variability. Immediately after induction of anesthesia with 5% isoflurane, six rebound measurements were taken with the tonometer from the central cornea on each measurement occasion to give an overall average IOP measurement (mmHg) and all graphical data points represent the mean±SEM of 3 readings (of 6 rebounds each) taken sequentially to ensure accurate measurements.

[3] = mouse laser-CNV, day 10, 0.6 mg/ml, 500 μl s.c. once daily, mean±SEM

dextran sulfate
effects on the laser-induced CNV ([1]; dose of 0.6 mg/ml per day): neither anti-angiogenic nor pro-angiogenic effects
difference vs saline control in lectin B4+ lesions ([1]; mouse laser-CNV, day 10): no statistical difference
difference vs vehicle (saline) in collagen IV new blood vessel area ([1]; mouse laser-CNV, day 10): no statistical significant difference
average isolectin B4 positive area [1, 3]: 43972±2302 μm^2
means of area of new blood vessels (collagen IV) [1, 3]: 54681±2378 μm^2
IOP compared to controls ([2]; IC TGF-β twice weekly, day 24, vs saline): significantly lower (P<0.001) and normalized
IOP compared to control group ([2]; IC TGF-β twice weekly, day 28 (end of experiment), vs saline): remained significantly lower
time of treatment after which elevated IOP started to reduce ([2]; IC TGF-β): 7 days
